According to US10316017B2, “COT modulators and methods of use thereof” (Gilead Sciences, Inc., priority 2015, dated 2019):

Tests used:
[1] = target: T1, human Cot catalytic domain (30-397 amino acids) (Homo sapiens, UniProt P41279); test: High Throughput Cot Biochemical Assay (KinEASE TR-FRET); settings: Cot biochemical HTRF (KinEASE TR-FRET) assay; read-out: IC50 HTRF
T1 construct: Purified recombinant human Cot catalytic domain (30-397 amino acids) was purchased from Cama Biosciences; purchased Cama Biosciences (so in the source)
T1 sequence (P41279 30-397): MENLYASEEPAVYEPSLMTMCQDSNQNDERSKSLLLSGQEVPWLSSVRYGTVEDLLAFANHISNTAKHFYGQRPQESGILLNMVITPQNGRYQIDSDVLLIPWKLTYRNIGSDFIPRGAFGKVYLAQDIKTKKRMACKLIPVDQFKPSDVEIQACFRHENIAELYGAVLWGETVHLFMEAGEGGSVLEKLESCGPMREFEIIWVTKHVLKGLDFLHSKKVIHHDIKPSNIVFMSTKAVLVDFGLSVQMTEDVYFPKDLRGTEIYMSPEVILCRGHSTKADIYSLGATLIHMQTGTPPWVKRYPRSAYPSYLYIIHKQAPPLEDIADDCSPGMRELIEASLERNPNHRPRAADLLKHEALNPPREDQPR
Summary of the method: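 TR-FRET readout: Eu-labeled phospho-specific antibody binds XL665-tagged STK3 peptide after phosphorylation by Cot (aa 30-397, 5 nM). Conditions: 400 μM ATP, 1 μM peptide, MOPS pH 7.0 buffer with MgOAc, DTT, BSA, NP-40, glycerol; 0.1% DMSO.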

[2] = system: TNFα production in LPS-stimulated human monocytes; test: Cot Monocyte TNFα Cell Based Assay; settings: Homo sapiens, Monocyte, TNFα in LPS-stimulated human monocytes; read-out: EC50 TNF
Summary of the method: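 TR-FRET read-out of total secreted TNFα, normalized as % control (unstimulated = 0%, LPS-stimulated = 100%). Cells (5,000/well) were exposed to compound 1 h at 37 °C, then to 50 pg/ml LPS for a further 4 h.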

## CC[C@@H](Nc1c(C#N)cnc2c(Cl)cc(N[C@@H](c3ccc(Cl)cc3)c3cn(C4CCN(C(C)(C)C)CC4)nn3)cc12)c1ccccc1 [Example 677, 6-(((S)-(1-(1-(tert-butyl)piperidin-4-yl)-1H-1,2,3-triazol-4-yl)(4-chlorophenyl)methyl)amino)-8-chloro-4-(((R)-1-phenylpropyl)amino)quinoline-3-carbonitrile]
[1]
  IC50: 10 nM
[2]
  EC50: 809 nM

## Cc1ccc(CNc2c(C#N)cnc3c(Cl)cc(N[C@@H](c4ccc(Cl)cc4)c4cn(C5CCN(C(C)(C)C)CC5)nn4)cc23)cc1 [Example 678, (S)-6-(((1-(1-(tert-butyl)piperidin-4-yl)-1H-1,2,3-triazol-4-yl)(4-chlorophenyl)methyl)amino)-8-chloro-4-((4-methylbenzyl)amino)quinoline-3-carbonitrile]
[1]
  IC50: 1430 nM
[2]
  EC50: 5690 nM

## Cc1cccc(CNc2c(C#N)cnc3c(Cl)cc(N[C@@H](c4ccc(Cl)cc4)c4cn(C5CCN(C(C)(C)C)CC5)nn4)cc23)c1 [Example 679, (S)-6-(((1-(1-(tert-butyl)piperidin-4-yl)-1H-1,2,3-triazol-4-yl)(4-chlorophenyl)methyl)amino)-8-chloro-4-((3-methylbenzyl)amino)quinoline-3-carbonitrile]
[1]
  IC50: 355 nM
[2]
  EC50: 12500 nM

## Cc1ccccc1CNc1c(C#N)cnc2c(Cl)cc(N[C@@H](c3ccc(Cl)cc3)c3cn(C4CCN(C(C)(C)C)CC4)nn3)cc12 [Example 680, (S)-6-(((1-(1-(tert-butyl)piperidin-4-yl)-1H-1,2,3-triazol-4-yl)(4-chlorophenyl)methyl)amino)-8-chloro-4-((2-methylbenzyl)amino)quinoline-3-carbonitrile]
[1]
  IC50: 44 nM
[2]
  EC50: 6750 nM

## CC(C)(C)N1CCC(n2cc([C@@H](Nc3cc(Cl)c4ncc(C#N)c(NCCCc5ccccc5)c4c3)c3ccc(Cl)cc3)nn2)CC1 [Example 681, (S)-6-(((1-(1-(tert-butyl)piperidin-4-yl)-1H-1,2,3-triazol-4-yl)(4-chlorophenyl)methyl)amino)-8-chloro-4-((3-phenylpropyl)amino)quinoline-3-carbonitrile]
[1]
  IC50: 434 nM
[2]
  EC50: 12800 nM

## CC(C)Nc1c(C#N)cnc2c(Cl)cc(N[C@@H](c3ccc(Cl)cc3)c3cn(C4CCN(C(C)(C)C)CC4)nn3)cc12 [Example 682, (S)-6-(((1-(1-(tert-butyl)piperidin-4-yl)-1H-1,2,3-triazol-4-yl)(4-chlorophenyl)methyl)amino)-8-chloro-4-(isopropylamino)quinoline-3-carbonitrile]
[1]
  IC50: 599 nM
[2]
  EC50: 15700 nM

## CCCCNc1c(C#N)cnc2c(Cl)cc(N[C@@H](c3ccc(Cl)cc3)c3cn(C4CCN(C(C)(C)C)CC4)nn3)cc12 [Example 683, (S)-6-(((1-(1-(tert-butyl)piperidin-4-yl)-1H-1,2,3-triazol-4-yl)(4-chlorophenyl)methyl)amino)-4-(butylamino)-8-chloroquinoline-3-carbonitrile]
[1]
  IC50: 165 nM
[2]
  EC50: 7250 nM

## CN(C)Cc1ccc(Nc2c(C#N)cnc3c(Cl)cc(N[C@@H](c4ccc(Cl)cc4)c4cn(C5CCN(C(C)(C)C)CC5)nn4)cc23)cc1 [Example 684, (S)-6-(((1-(1-(tert-butyl)piperidin-4-yl)-1H-1,2,3-triazol-4-yl)(4-chlorophenyl)methyl)amino)-8-chloro-4-((4-((dimethylamino)methyl)phenyl)amino)quinoline-3-carbonitrile]
[1]
  IC50: 7350 nM
[2]
  EC50: 6040 nM

## N#Cc1cnc2c(Cl)cc(N[C@@H](c3ccccc3)c3cn([C@@H]4CCNC[C@@H]4F)nn3)cc2c1Nc1ccc(F)c(Cl)c1 [Example 685, 8-chloro-4-((3-chloro-4-fluorophenyl)amino)-6-(((S)-(1-((3S,4R)-3-fluoropiperidin-4-yl)-1H-1,2,3-triazol-4-yl)(phenyl)methyl)amino) quinoline-3-carbonitrile]
[1]
  IC50: 16 nM
[2]
  EC50: 359 nM

## CC(C)(C)N1CCC(n2cc([C@@H](Nc3cc(Cl)c4ncc(C#N)c(Nc5ccc6c(cnn6Cc6ccccc6)c5)c4c3)c3ccc(Cl)cc3)nn2)CC1 [Example 686, (S)-4-((1-benzyl-1H-indazol-5-yl)amino)-6-(((1-(1-(tert-butyl)piperidin-4-yl)-1H-1,2,3-triazol-4-yl)(4-chlorophenyl)methyl)amino)-8-chloroquinoline-3-carbonitrile]
[1]
  IC50: 7240 nM
[2]
  EC50: 5900 nM

## Cc1c(Cl)cccc1Nc1c(C#N)cnc2c(Cl)cc(N[C@@H](c3ccc(Cl)cc3)c3cn(C4CCN(C(C)(C)C)CC4)nn3)cc12 [Example 687, (S)-6-(((1-(1-(tert-butyl)piperidin-4-yl)-1H-1,2,3-triazol-4-yl)(4-chlorophenyl)methyl)amino)-8-chloro-4-((3-chloro-2-methylphenyl)amino)quinoline-3-carbonitrile]
[1]
  IC50: 40 nM
[2]
  EC50: 2830 nM

## N#Cc1cnc2c(Cl)cc(N[C@@H](c3ccc(Cl)cc3)c3c[nH]nn3)cc2c1Nc1ccc(Cl)c(Cl)c1 [Example 688, (S)-8-chloro-6-(((4-chlorophenyl)(1H-1,2,3-triazol-4-yl)methyl)amino)-4-((3,4-dichlorophenyl)amino)quinoline-3-carbonitrile]
[1]
  IC50: 621 nM
[2]
  EC50: 1250 nM

## CC(C)(C)N1CCC(n2cc([C@@H](Nc3cc(C#N)c4ncc(C#N)c(Nc5ccc(F)c(Cl)c5)c4c3)c3ccc(Cl)cc3)nn2)CC1 [Example 689, (S)-6-(((1-(1-(tert-butyl)piperidin-4-yl)-1H-1,2,3-triazol-4-yl)(4-chlorophenyl)methyl)amino)-4-((3-chloro-4-fluorophenyl)amino)quinoline-3,8-dicarbonitrile]
[1]
  IC50: 11 nM
[2]
  EC50: 343 nM

## CNC(=O)c1cccc([C@H](Nc2cc(Cl)c3ncc(C#N)c(Nc4ccc(F)c(Cl)c4)c3c2)c2cn(C3CCN(C(C)(C)C)CC3)nn2)c1 [Example 690, (S)-3-((1-(1-(tert-butyl)piperidin-4-yl)-1H-1,2,3-triazol-4-yl)((8-chloro-4-((3-chloro-4-fluorophenyl)amino)-3-cyanoquinolin-6-yl)amino)methyl)-N-methylbenzamide]
[1]
  IC50: 2 nM
[2]
  EC50: 317 nM

## CC(C)(C)N1CCC(n2cc([C@@H](Nc3cc(Cl)c4ncc(C#N)c(Nc5ccc(F)c(Cl)c5)c4c3)c3cccc(C(=O)N4CCCC4)c3)nn2)CC1 [Example 691, (S)-6-(((1-(1-(tert-butyl)piperidin-4-yl)-1H-1,2,3-triazol-4-yl)(3-(pyrrolidine-1-carbonyl)phenyl)methyl)amino)-8-chloro-4-((3-chloro-4-fluorophenyl)amino)quinoline-3-carbonitrile]
[1]
  IC50: 2 nM
[2]
  EC50: 90 nM

## CC(C)(C)N1CCC(n2cc([C@@H](Nc3cc(Cl)c4ncc(C#N)c(Nc5cncc(Cl)c5)c4c3)c3ccc(Cl)cc3)nn2)CC1 [Example 692, (S)-6-(((1-(1-(tert-butyl)piperidin-4-yl)-1H-1,2,3-triazol-4-yl)(4-chlorophenyl)methyl)amino)-8-chloro-4-((5-chloropyridin-3-yl)amino)quinoline-3-carbonitrile]
[1]
  IC50: 51 nM
[2]
  EC50: 797 nM

## CC(C)(C)N1CCC(n2cc([C@@H](Nc3cc(Cl)c4ncc(C#N)c(Nc5cc(Cl)c(F)cc5F)c4c3)c3ccc(Cl)cc3)nn2)CC1 [Example 693, (S)-6-(((1-(1-(tert-butyl)piperidin-4-yl)-1H-1,2,3-triazol-4-yl)(4-chlorophenyl)methyl)amino)-8-chloro-4-((5-chloro-2,4-difluorophenyl)amino)quinoline-3-carbonitrile]
[1]
  IC50: 46 nM
[2]
  EC50: 1540 nM

## CC(C)(C)N1CCC(n2cc([C@@H](Nc3cc(Cl)c4ncc(C#N)c(Nc5c(F)ccc(Cl)c5F)c4c3)c3ccc(Cl)cc3)nn2)CC1 [Example 694, (S)-6-(((1-(1-(tert-butyl)piperidin-4-yl)-1H-1,2,3-triazol-4-yl)(4-chlorophenyl)methyl)amino)-8-chloro-4-((3-chloro-2,6-difluorophenyl)amino)quinoline-3-carbonitrile]
[1]
  IC50: 20 nM
[2]
  EC50: 843 nM

## CC(C)(C)N1CCC(n2cc([C@@H](Nc3cc(Cl)c4ncc(C#N)c(Nc5ccc(F)c(Cl)c5F)c4c3)c3ccc(Cl)cc3)nn2)CC1 [Example 695, (S)-6-(((1-(1-(tert-butyl)piperidin-4-yl)-1H-1,2,3-triazol-4-yl)(4-chlorophenyl)methyl)amino)-8-chloro-4-((3-chloro-2,4-difluorophenyl)amino)quinoline-3-carbonitrile]
[1]
  IC50: 19 nM
[2]
  EC50: 434 nM

## CC(C)(C)N1CCC(n2cc([C@@H](Nc3cc(Cl)c4ncc(C#N)c(Nc5cc(F)cc(Cl)c5)c4c3)c3ccc(Cl)cc3)nn2)CC1 [Example 696, (S)-6-(((1-(1-(tert-butyl)piperidin-4-yl)-1H-1,2,3-triazol-4-yl)(4-chlorophenyl)methyl)amino)-8-chloro-4-((3-chloro-5-fluorophenyl)amino)quinoline-3-carbonitrile]
[1]
  IC50: 85 nM
[2]
  EC50: 3290 nM

## CC(Nc1c(C#N)cnc2c(Cl)cc(N[C@@H](c3ccc(Cl)cc3)c3cn(C4CCN(C(C)(C)C)CC4)nn3)cc12)c1ccccn1 (stereo partly drawn) [Example 697, 6-(((S)-(1-(1-(tert-butyl)piperidin-4-yl)-1H-1,2,3-triazol-4-yl)(4-chlorophenyl)methyl)amino)-8-chloro-4-((1-(pyridin-2-yl)ethyl)amino)quinoline-3-carbonitrile]
[1]
  IC50: > 10000 nM
[2]
  EC50: 17100 nM
